From PMC7508583, “Discovery and Preclinical Development of Antigiardiasis Fumagillol Derivatives” (Antimicrobial Agents and Chemotherapy, 2020)
Where two headings read alike, the source gives them in different places.

Tests used:
[1] = Accelerated temperature/humidity degradation test; format: physicochemical; conditions: day 28, 37°C; for Mean ± SE degradation at 4 wk and 37°C, 75% humidity: 75% relative humidity; for Mean ± SE degradation at 4 wk and 37°C, uncontrolled humidity: uncontrolled relative humidity
Method: Accelerated temperature tests were performed at 37°C and under 75% relative humidity or laboratory uncontrolled relative humidity, comparing compounds 3 and 9 to fumagillin. Sanofi reported previously that fumagillin degraded from 98% to 85% purity when stored at 40°C for 2 weeks at ambient humidity ([42]).
For accelerated temperature degradation tests at 75% relative humidity and at laboratory uncontrolled relative humidity, fumagillin and compounds 3 and 9 were incubated at 37°C under either controlled or uncontrolled humidity, and the samples were analyzed by HPLC every week for 4 weeks. Measurements were made in duplicate. Area-under-the-curve values were calculated to derive the percentage of compound remaining. For pH degradation, the compounds were dissolved in DMSO and mixed with pH 3.0 buffer. The samples were incubated at 25°C for up to 48 h. Samples were analyzed by HPLC every 2 h for the first 8 h and then after 24 and 48 h.

[2] = test system: G. lamblia GS trophozoites; assay: Mouse giardiasis model efficacy; format: in vivo, Giardia lamblia; conditions: for ED50: Giardia duodenalis, 96 h; for EC50, 4-day single-daily-dose treatment regimen: Fig. 5
Method: The C57BL/6J mice were infected with G. lamblia GS trophozoites, treated for 4 days, and euthanized as described in Materials and Methods.
Compound efficacy was evaluated in the mature mouse giardiasis model reported previously ([18], [66]). Fifteen 4-week-old C57BL/6J female mice (The Jackson Laboratory, Bar Harbor, ME) were infected with G. lamblia GS or H7 trophozoites. For each experiment, the trophozoites (500,000 trophozoites suspended in 200 μl of TYI-S-33 medium) were administered by oral gavage to 15 mice. […] The remaining 5 untreated mice served as controls. The compounds were administered by oral gavage in 200 μl of TYI-S-33 medium supplemented with 0.5% DMSO. All mice were euthanized on day 7. The University of Maryland College Park IACUC approved the animal studies.
Two inches of the upper small intestine were dissected and washed with 2 ml of medium supplemented with antibiotics to produce axenized cultures (1 mg/ml each piperacillin and moxalactam and 10 μg/ml each vancomycin and polymyxin B, which is a modified mixture compared with that used earlier). The harvested small intestines were opened longitudinally and minced in a petri dish containing 10 ml of ice-chilled medium. The plates were placed on ice for 30 min to allow the trophozoites to detach from the intestine, and the entire content of each petri dish was transferred into a 15-ml glass tube, the volume was adjusted to 14 ml by adding the antibiotic-containing medium, and the tube was vigorously vortexed to separate the trophozoites from the intestine debris. For the following 2 h, the tubes were kept at 37°C to allow trophozoite attachment to the wall of the glass tube, after which the medium containing the intestine debris was decanted and replaced by fresh medium. The tubes were kept at 37°C for another 15 min, followed by a second medium replacement. The tubes were kept at 37°C for 6 days for proliferation. Trophozoite growth was determined once daily by monitoring the ATP content using the ATPlite reagent.
The proliferation measurements were used to calculate growth curves and the trophozoite load of drug-treated mice compared with that of untreated mice. The trophozoite load was quantified by calculating the initial population from the growth curves and fitting the luminescence or the trophozoite counting data to the Malthusian model of exponential growth, Nt = N0e^rt, where Nt is the signal of the population at time t, r is the growth rate, and N0 is the signal of the initial population at the end of treatment. The percentage of the load relative to the N0 for untreated mouse samples was determined. […] The curve was fit with a variable slope using GraphPad Prism (version 8.2.1) software (GraphPad Software Inc., La Jolla, CA).

CHO-K1 (CHO) cells = conditions: cited from earlier work
Caco-2 cell monolayers = assay: in vitro; conditions: human, Caco-2, 120 min, 10 µM, pH 7.4
Source text: Next, we tested the permeation of the compounds across polarized Caco-2 cell monolayers, a method that is widely used as an in vitro model of the human small intestinal mucosa to predict the absorption of orally administered drugs ([63], [64]). With noninvasive intestinal infections, there is no need to establish a high plasma concentration. Since a high rate of uptake through the host gut lining could increase compound toxicity, we sought to reduce gut absorption. […] Both apical-to-basal and basal-to-apical permeation values were measured to obtain information about efflux. […] The efflux machinery is currently unknown.
Passage 36 Caco-2 cells were used. The cells were cultured in Dulbecco’s modified Eagle’s medium (DMEM; 5 ml of 100 mM sodium pyruvate, 5 ml of 100× nonessential amino acids, 5 ml of penicillin-streptomycin, and 100 ml of heat-inactivated fetal bovine serum added to 385 ml of DMEM aseptically and mixed thoroughly), pH 7.4, at 37°C in 5% CO2. DMEM (250 μl) was added to the basal compartment of 96-well multiscreen Caco-2 cell plate consisting of high-pore-density polycarbonate (Millipore) with a 0.4-μm pore size and a 0.11-cm^2 active membrane area. The cells were seeded at a density of 12,000 cells/well (0.16 × 10^6 cells/ml) in the apical wells, with one well containing only medium as blank. The Caco-2 cell plate was placed in a CO2 incubator at 37°C for cell proliferation. On the day of assay, the medium was removed, washed twice with Hanks balanced salt solution (HBSS) buffer supplemented with 2% bovine serum albumin (BSA), pH 7.4, and incubated with the HBSS buffer for 30 min at 37°C. Wells with transepithelial electrical resistance values of greater than 230 Ω · cm^2 were selected for the experiments. […] The assay was performed in duplicate.
Seventy-five microliters of the test compounds was added to the apical wells, and 250 μl of HBSS buffer with 2% BSA was added to the basal wells. The plate was incubated in a CO2 incubator with shaking on a plate shaker at 150 rpm for 120 min, after which 25 μl of the basal samples was collected and processed.
Two hundred fifty microliters of test compounds was added to the basal wells, and 75 μl of HBSS buffer with 2% BSA was added to the apical wells. The plate was incubated in a CO2 incubator with shaking on a plate shaker at 150 rpm for 120 min, after which 25 μl of the apical samples was collected and processed.
For sample processing, a single-point calibration curve in HBSS buffer with 2% BSA was used. Donor samples were diluted 1:1 with HBSS containing 2% BSA, and receiver samples were diluted with 1:1 HBSS buffer and precipitated with 200 μl of acetonitrile containing internal standard. The samples were vortexed for 5 min at 1,000 rpm and centrifuged at 4,000 rpm for 10 min. One hundred microliters of the supernatant was diluted with 200 μl of water and analyzed by LC-MS/MS (with a Shimadzu ultrafast liquid chromatograph and an API 4000 LC-MS/MS system).
The apparent permeation coefficients (Papp) were calculated as Papp = (dQ/dT) × (1/C0) × (1/A), where dQ is the amount permeated to the receiver compartment of the 96-well plate, dT is the time of compound incubation, C0 is the initial compound concentration in the donor compartment of the well, and A is the surface area of the monolayer.

[3] = 13.7 mg/kg, mouse giardiasis model

CO[C@@H]1[C@H](OC(=O)/C=C/C=C/C=C/C=C/C(=O)O)CC[C@]2(CO2)[C@H]1[C@@]1(C)O[C@@H]1CC=C(C)C [Fumagillin, reference compound]
Mean ± SE degradation at 4 wk and 37°C, 75% humidity [1]: 30.37 ± 1.12% | Mean ± SE degradation at 4 wk and 37°C, 75% humidity ([1]; listed as fumagillin): 30.37% | Mean ± SE degradation at 4 wk and 37°C, uncontrolled humidity [1]: 20.22 ± 3.90% | Mean ± SE degradation at 4 wk and 37°C, uncontrolled humidity ([1]; listed as fumagillin): 20.22% | cure of mice [2, 3]: none of the mice were cured | trophozoite load remaining compared with untreated control mice [2, 3]: 7% | ED50 ([2]; po): 0.247 mg/kg | EC50, 4-day single-daily-dose treatment regimen ([2]; mouse giardiasis model): 0.247 mg/kg/day | IC50 (CHO-K1 (CHO) cells; read-out: IC50, cytotoxicity toward mammalian CHO cells): > 100 µM

COC1C(OC(=O)NC(=O)CN2CCOCC2)CCC2(CO2)C1C1(C)OC1CC=C(C)C (stereo not drawn) [Compound 3]
Caco-2 cell permeation as % of the permeation of fumagillin (Caco-2 cell monolayers): 62%

CO[C@@H]1[C@H](OC(=O)Nc2ccc(C(=O)O)cc2)CC[C@]2(CO2)[C@H]1[C@@]1(C)O[C@@H]1CC=C(C)C [Compound 9, 4-(((((3R,4S,5S,6R)-5-methoxy-4-((2R,3R)-2-methyl-3-(3-methylbut-2-en-1-yl)oxiran-2-yl)-1-oxaspiro[2.5]octan-6-yl)oxy)carbonyl)amino)benzoic acid]
Caco-2 cell permeation as % of the permeation of fumagillin (Caco-2 cell monolayers): 53% | fully curative dose (100% effective dose, ED100) ([2]; C57BL/6J mice infected with G. lamblia GS, oral, once daily for 4 days): 6.6 mg/kg | ED50 ([2]; C57BL/6J mice infected with G. lamblia GS, oral, once daily for 4 days, read-out: ED50): 0.064 mg/kg | EC50, 4-day single-daily-dose treatment regimen ([2]; mouse giardiasis model): 0.064 mg/kg/day

Cc1ncc([N+](=O)[O-])n1CCO [Metronidazole, reference compound]
IC50 (CHO-K1 (CHO) cells; read-out: IC50 CHO, cytotoxicity): 17.3 µM
